From ChEMBL document CHEMBL1148801, “Structural modification of the P2' position of 2,7-dialkyl-substituted 5(S)-amino-4(S)-hydroxy-8-phenyl-octanecarboxamides: the discovery of aliskiren, a potent nonpeptide human renin inhibitor active after once daily dosing in marmosets” (J Med Chem, 2007)

Assays:
physchem [1] = conditions: octanol/water, pH 7.4
physchem [2] = experiment: physchem
Renin [3] = molecular target: T1, Renin (Callithrix jacchus, UniProt Q9TSZ1); type: cell-free, Plasma
T1 sequence (Q9TSZ1 whole entry): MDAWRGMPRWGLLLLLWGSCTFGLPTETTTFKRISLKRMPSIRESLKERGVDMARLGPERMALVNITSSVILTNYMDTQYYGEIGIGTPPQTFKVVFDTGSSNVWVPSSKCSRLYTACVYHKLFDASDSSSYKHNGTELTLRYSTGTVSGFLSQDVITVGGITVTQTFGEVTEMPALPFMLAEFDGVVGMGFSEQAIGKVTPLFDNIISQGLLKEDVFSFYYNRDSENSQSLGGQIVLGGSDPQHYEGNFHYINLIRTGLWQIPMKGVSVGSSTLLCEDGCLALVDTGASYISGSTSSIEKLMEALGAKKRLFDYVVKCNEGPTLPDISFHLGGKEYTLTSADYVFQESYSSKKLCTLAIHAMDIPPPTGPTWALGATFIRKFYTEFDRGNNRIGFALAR

Renin [4] = molecular target: T2, Renin (Homo sapiens, UniProt P00797)
T2 sequence (P00797 whole entry): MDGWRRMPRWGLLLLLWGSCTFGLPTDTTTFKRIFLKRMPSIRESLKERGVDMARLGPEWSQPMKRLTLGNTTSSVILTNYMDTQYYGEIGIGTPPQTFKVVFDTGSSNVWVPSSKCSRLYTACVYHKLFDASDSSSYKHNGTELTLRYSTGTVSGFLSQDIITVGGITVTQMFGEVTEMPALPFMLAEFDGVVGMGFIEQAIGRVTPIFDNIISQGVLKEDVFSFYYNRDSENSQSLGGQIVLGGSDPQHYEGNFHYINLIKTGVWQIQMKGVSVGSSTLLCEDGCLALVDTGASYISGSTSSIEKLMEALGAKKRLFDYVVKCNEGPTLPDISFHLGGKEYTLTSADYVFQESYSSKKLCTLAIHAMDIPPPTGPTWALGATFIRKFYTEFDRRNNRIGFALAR

in vivo [5] = conditions: marmoset, po, 3 mg/kg
Renin [6] = molecular target: T2, Renin; remark: listed apart in the source
Callithrix jacchus = organism: Callithrix jacchus; type: functional, Plasma
physchem [7] = conditions: water
Pepsin A = Pepsin A (Homo sapiens, UniProt P0DJD9)
in vivo [8] = conditions: rat, po
in vivo [9] = conditions: marmoset
Cathepsin E = molecular target: T3, Cathepsin E (Homo sapiens, UniProt P14091)
T3 sequence (P14091 whole entry): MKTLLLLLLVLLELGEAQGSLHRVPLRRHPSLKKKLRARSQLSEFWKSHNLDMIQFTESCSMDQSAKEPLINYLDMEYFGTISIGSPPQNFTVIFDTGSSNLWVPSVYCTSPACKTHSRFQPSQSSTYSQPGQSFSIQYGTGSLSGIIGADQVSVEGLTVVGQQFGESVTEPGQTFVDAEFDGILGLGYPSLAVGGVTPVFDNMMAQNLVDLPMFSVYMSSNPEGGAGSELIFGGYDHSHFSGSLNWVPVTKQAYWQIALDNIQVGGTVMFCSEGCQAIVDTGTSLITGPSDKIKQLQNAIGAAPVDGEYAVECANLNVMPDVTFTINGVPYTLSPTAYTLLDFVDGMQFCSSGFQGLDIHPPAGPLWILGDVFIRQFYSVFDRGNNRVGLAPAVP

Beta-secretase 1 = Beta-secretase 1 (Homo sapiens, UniProt P56817)
Cathepsin D = Cathepsin D (Homo sapiens, UniProt P07339)
in vivo [10] = conditions: dog, po
physchem [11] = experiment: physchem; remark: listed apart in the source
physchem [12] = conditions: octanol/water, pH 6.8
physchem [13] = conditions: buffer, pH 7.4

Sequence of Cathepsin D (P07339 65-162 limits assumed): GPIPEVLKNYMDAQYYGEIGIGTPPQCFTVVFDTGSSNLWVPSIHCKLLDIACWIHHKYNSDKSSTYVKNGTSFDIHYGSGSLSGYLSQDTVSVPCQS
Sequence of Cathepsin D (P07339 169-412 limits assumed): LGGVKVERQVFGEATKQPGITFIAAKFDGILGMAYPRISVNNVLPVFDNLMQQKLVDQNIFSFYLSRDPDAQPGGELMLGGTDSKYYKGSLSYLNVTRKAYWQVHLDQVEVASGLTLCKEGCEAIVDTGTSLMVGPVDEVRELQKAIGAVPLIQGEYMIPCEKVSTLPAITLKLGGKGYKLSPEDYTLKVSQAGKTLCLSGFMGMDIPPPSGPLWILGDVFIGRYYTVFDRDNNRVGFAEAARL
Sequence of Pepsin A (P0DJD9 whole entry): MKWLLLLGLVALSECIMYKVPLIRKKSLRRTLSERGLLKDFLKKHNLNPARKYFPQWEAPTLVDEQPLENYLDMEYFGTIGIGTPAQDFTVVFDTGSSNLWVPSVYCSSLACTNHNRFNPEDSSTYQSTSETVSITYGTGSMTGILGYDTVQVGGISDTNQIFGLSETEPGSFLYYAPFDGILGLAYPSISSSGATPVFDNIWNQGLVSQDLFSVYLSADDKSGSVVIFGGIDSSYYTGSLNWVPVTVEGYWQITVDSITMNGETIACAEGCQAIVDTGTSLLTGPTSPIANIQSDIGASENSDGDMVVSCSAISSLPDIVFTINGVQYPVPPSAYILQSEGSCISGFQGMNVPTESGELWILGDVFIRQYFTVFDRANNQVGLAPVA
Sequence of Beta-secretase 1 (P56817 whole entry): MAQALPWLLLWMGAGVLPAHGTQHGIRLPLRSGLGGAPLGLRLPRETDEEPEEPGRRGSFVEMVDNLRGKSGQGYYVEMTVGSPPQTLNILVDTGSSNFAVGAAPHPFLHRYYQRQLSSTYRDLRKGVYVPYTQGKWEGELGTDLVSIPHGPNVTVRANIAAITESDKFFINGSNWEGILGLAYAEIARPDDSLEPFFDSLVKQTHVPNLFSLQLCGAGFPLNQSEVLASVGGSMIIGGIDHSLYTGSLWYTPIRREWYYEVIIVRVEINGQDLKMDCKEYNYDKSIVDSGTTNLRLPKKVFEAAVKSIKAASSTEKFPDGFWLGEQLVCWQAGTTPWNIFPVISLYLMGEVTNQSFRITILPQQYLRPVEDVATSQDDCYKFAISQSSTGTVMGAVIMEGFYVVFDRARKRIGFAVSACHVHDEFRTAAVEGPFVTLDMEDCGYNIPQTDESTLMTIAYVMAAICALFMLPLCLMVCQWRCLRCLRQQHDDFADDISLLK

Row | SMILES | IC50 (Renin [3]) | IC50 (Renin [4]) | IC50 (Renin [6]) | further results
1 | COCCCOc1cc(C[C@@H](C[C@H](N)[C@@H](O)C[C@H](C(=O)NCCC(=O)N(C)C)C(C)C)C(C)C)ccc1OC |  |  |  | logD (physchem [1]): 2.48; pKa (physchem [2]): 9.4
2 | COCCCCc1cc(C[C@@H](C[C@H](N)[C@@H](O)C[C@H](C(=O)NCCN2CCOCC2)C(C)C)C(C)C)ccc1OC.Cl | 1 nM | 2 nM | 0.9 nM | bioavailability (in vivo [5]): 30%; logD (physchem [1]): 2.85; pKa (physchem [2]): 6.01
3 | COCCCCc1cc(C[C@@H](C[C@H](N)[C@@H](O)C[C@H](C(=O)NCC(C)(C)C(N)=O)C(C)C)C(C)C)ccc1OC.Cl | 4 nM | 1 nM | 3 nM | bioavailability (in vivo [5]): 8%; logD (physchem [1]): 3.31; pKa (physchem [2]): 9.44
4 | CNC(=O)C(C)(C)CNC(=O)[C@@H](C[C@H](O)[C@@H](N)C[C@H](Cc1ccc(OC)c(OCCCOC)c1)C(C)C)C(C)C.Cl | 2 nM | 0.4 nM | 0.7 nM | bioavailability (in vivo [5]): 25%
5 | COCCCOc1cc(C[C@@H](C[C@H](N)[C@@H](O)C[C@H](C(=O)NC[C@@H]2CCC(=O)N2)C(C)C)C(C)C)ccc1OC.Cl | 3 nM | 0.6 nM | 0.9 nM | bioavailability (in vivo [5]): 22%
6 | COCCCOc1cc(C[C@@H](C[C@H](N)[C@@H](O)C[C@H](C(=O)NC(C)(C)CN2CCOCC2)C(C)C)C(C)C)ccc1OC |  | 16 nM | 27 nM | 
7 | CC[C@H](NC(=O)[C@@H](C[C@H](O)[C@@H](N)C[C@H](Cc1ccc(OC)c(OCCCOC)c1)C(C)C)C(C)C)C(N)=O | 1 nM | 0.8 nM |  | 
8 | COCCCOc1cc(C[C@@H](C[C@H](N)[C@@H](O)C[C@H](C(=O)N[C@@H](CO)C(N)=O)C(C)C)C(C)C)ccc1OC | 6 nM | 2 nM | 3 nM | 
9 | COCCCOc1cc(C[C@@H](C[C@H](N)[C@@H](O)C[C@H](C(=O)NC(C)(C)C(N)=O)C(C)C)C(C)C)ccc1OC | 200 nM | 13 nM | 100 nM | 
10 | COCCCOc1cc(C[C@@H](C[C@H](N)[C@@H](O)C[C@H](C(=O)NCCC(=O)N(C)C)C(C)C)C(C)C)ccc1OC.Cl |  |  |  | bioavailability (in vivo [5]): 14%
11 | COCCCOc1cc(C[C@@H](C[C@H](N)[C@@H](O)C[C@H](C(=O)N[C@@H](C)CC(N)=O)C(C)C)C(C)C)ccc1OC | 3 nM | 1 nM | 2 nM | 
12 | COCCCOc1cc(C[C@@H](C[C@H](N)[C@@H](O)C[C@H](C(=O)NCCN2CCOCC2)C(C)C)C(C)C)ccc1OC | 3 nM | 0.4 nM | 1 nM | 
13 | COCCCOc1cc(C[C@@H](C[C@H](N)[C@@H](O)C[C@H](C(=O)NCCc2nn[nH]n2)C(C)C)C(C)C)ccc1OC | 2 nM | 2 nM | 2 nM | 
14 | COCCCOc1cc(C[C@@H](C[C@H](N)[C@@H](O)C[C@H](C(=O)NC(C)CN2CCOCC2)C(C)C)C(C)C)ccc1OC (stereo partly specified) | 9 nM | 3 nM |  | 
15 | COCCCOc1cc(C[C@@H](C[C@H](N)[C@@H](O)C[C@H](C(=O)N[C@H](C)CC(N)=O)C(C)C)C(C)C)ccc1OC | 28 nM | 6 nM | 57 nM | 
16 | CCCCNC(=O)[C@@H](C[C@H](O)[C@@H](N)C[C@H](Cc1ccc(OC)c(OCCCOC)c1)C(C)C)C(C)C.Cl |  |  |  | Inhibition (Callithrix jacchus): 79%
17 | COCCCOc1cc(C[C@@H](C[C@H](N)[C@@H](O)C[C@H](C(=O)NCC(C)(C)C(=O)O)C(C)C)C(C)C)ccc1OC | 13 nM | 3 nM | 13 nM | 
18 | COCCCOc1cc(C[C@@H](C[C@H](N)[C@@H](O)C[C@H](C(=O)NCCCN2CCOCC2)C(C)C)C(C)C)ccc1OC | 3 nM | 3 nM | 3 nM | 
19 | COCCCOc1cc(C[C@@H](C[C@H](N)[C@@H](O)C[C@H](C(=O)NC[C@H]2CCC(=O)N2)C(C)C)C(C)C)ccc1OC.Cl | 2 nM | 2 nM | 1 nM | solubility (physchem [7]): > 100 mg/mL; logD (physchem [1]): 2.06; pKa (physchem [2]): 9.09
20 | COCCCOc1cc(C[C@@H](C[C@H](N)[C@@H](O)C[C@H](C(=O)NCC(C)(C)N2CCOCC2)C(C)C)C(C)C)ccc1OC | 18 nM | 0.6 nM | 2 nM | 
21 | COCCCOc1cc(C[C@@H](C[C@H](N)[C@@H](O)C[C@H](C(=O)NCC(C)(C)C(N)=O)C(C)C)C(C)C)ccc1OC.Cl |  |  |  | IC50 (Pepsin A): > 10000 nM; bioavailability (in vivo [8]): 2.4%; half-life (in vivo [9]): 8.7 h; IC50 (Cathepsin E): > 10000 nM; IC50 (Beta-secretase 1): > 10000 nM; bioavailability (in vivo [5]): 16%; IC50 (Cathepsin D): > 10000 nM; bioavailability (in vivo [10]): 32%
22 | COCCCOc1cc(C[C@@H](C[C@H](N)[C@@H](O)C[C@H](C(=O)NCC(C)(C)C(N)=O)C(C)C)C(C)C)ccc1OC.COCCCOc1cc(C[C@@H](C[C@H](N)[C@@H](O)C[C@H](C(=O)NCC(C)(C)C(N)=O)C(C)C)C(C)C)ccc1OC.O=C(O)/C=C/C(=O)O [ALISKIREN FUMARATE] |  |  |  | solubility (physchem [11]): 0.44 mg/mL; logD (physchem [12]): 0.1; logD (physchem [1]): 2.5; solubility (physchem [13]): > 100 mg/mL; pKa (physchem [2]): 9.2
